From patent US6737383B1, “Herbicidal oxadiazolidines” (priority 1999, dated 2004)

How the values were obtained:
rape = assay: Test B pre/postemergence rape; type: in vivo, Brassica napus
Summary of the method: (§1)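 Herbicidal effect was estimated by eye on a ten-point control scale after plants spent twelve to sixteen days in a greenhouse following soil or foliar treatment. Foliar sprays targeted plants at one to four leaves; all doses were formulated in a non-phytotoxic solvent with surfactant.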

corn = assay: Test B pre/postemergence corn; type: in vivo, Zea mays
Summary of the method: as §1

duck salad = assay: Test B flood test duck salad; type: in vivo, Heteranthera limosa
Summary of the method: (§2)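 Read-out is a visual response score from 0 (no effect) to 10 (complete control), assigned by comparison with untreated controls. Treatment was applied at the 2-leaf stage, and plants stayed in the greenhouse for twelve to sixteen days before scoring.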

rice = assay: Test B flood test rice; type: in vivo, Oryza sativa
Summary of the method: as §2

bamyardgrass = assay: Test B flood test barnyardgrass; type: in vivo, Echinochloa crus-galli
Summary of the method: as §2

wheat = assay: Test B pre/postemergence wheat; type: in vivo, Triticum aestivum
Summary of the method: as §1

purple nutsedge = assay: Test B pre/postemergence purple nutsedge; type: in vivo, Cyperus rotundus
Summary of the method: as §1

velvetleaf = assay: Test B pre/postemergence velvetleaf; type: in vivo, Abutilon theophrasti
Summary of the method: as §1

smallflower flatsedge = assay: Test B flood test smallflower flatsedge; type: in vivo, Cyperus difformis
Summary of the method: as §2

cocklebur = assay: Test B pre/postemergence cocklebur; type: in vivo, Xanthium strumarium
Summary of the method: as §1

bedstraw = assay: Test B pre/postemergence bedstraw; type: in vivo, Galium aparine
Summary of the method: as §1

wild oat = assay: Test B pre/postemergence wild oat; type: in vivo, Avena fatua
Summary of the method: as §1

blackgrass = assay: Test B pre/postemergence blackgrass; type: in vivo, Alopecurus myosuroides
Summary of the method: as §1

crabgrass = assay: Test B pre/postemergence crabgrass; type: in vivo, Digitaria sanguinalis
Summary of the method: as §1

sugar beet = assay: Test B pre/postemergence sugar beet; type: in vivo, Beta vulgaris
Summary of the method: as §1

soybean = assay: Test B pre/postemergence soybean; type: in vivo, Glycine max
Summary of the method: as §1

surinam grass = assay: Test B pre/postemergence surinam grass; type: in vivo, Brachiaria decumbens
Summary of the method: as §1

[1] = Postemergence, Rate 125 g/ha, scale of 0 to 10 where 0 is no effect and 10 is complete control
[2] = Preemergence, Rate 62 g/ha, scale 0 to 10 (0 no effect, 10 complete control)
[3] = Preemergence, Rate 125 g/ha, 0 is no effect, 10 is complete control
[4] = Preemergence, Rate 250 g/ha, scale 0 to 10, 0 is no effect, 10 is complete control
[5] = Preemergence, Rate 500 g/ha, scale 0 to 10 (0 no effect, 10 complete control)
[6] = Rate 62 g/ha, Postemergence, scale of 0 to 10 where 0 is no effect and 10 is complete control
[7] = Rate 250 g/ha, Postemergence, scale 0 to 10, 0 is no effect, 10 is complete control
[8] = Rate 500 g/ha, Postemergence, scale 0 to 10
[9] = Postemergence (flood test species), Rate 125 g/ha, scale of 0 to 10 where 0 is no effect and 10 is complete control
[10] = Rate 31 g/ha, Postemergence section (flood test species), scale 0 to 10
[11] = Rate 62 g/ha, Postemergence section, flood test species, scale of 0 to 10 where 0 is no effect and 10 is complete control
[12] = Rate 250 g/ha, Postemergence (flood test), scale 0 to 10, 0 is no effect, 10 is complete control
[13] = Rate 250 g/ha, Pre-emergence, flood-test species, scale 0 to 10, 0 is no effect, 10 is complete control
[14] = Rate 500 g/ha, headed Pre-emergence (flood test species), scale 0 to 10 (0 no effect, 10 complete control)
[15] = Rate 1000 g/ha, Pre-emergence (as headed), scale 0 to 10
[16] = Rate 2000 g/ha, Pre-emergence (as headed), scale 0 to 10

## C=C(C)Cn1c(=O)on(C(=O)N(c2ccc(F)cc2)C(C)C)c1=O [Compound 139]
rape; [1]
  Rape plant response rating: 2
rape; [2]
  Rape plant response rating: 0
rape; [3]
  Rape plant response rating (0 to 10 scale): 0
rape; [4]
  Rape plant response rating: 4
rape; [5]
  Rape plant response rating: 9
rape; [6]
  Rape plant response rating: 0
rape; [7]
  Plant response rating, Rape: 2
rape; [8]
  Rape plant response rating: 4
corn; [1]
  Corn plant response rating: 2
corn; [2]
  Corn plant response rating: 0
corn; [3]
  Corn plant response rating (0 to 10 scale): 0
corn; [4]
  Corn plant response rating: 4
corn; [5]
  Corn plant response rating: 7
corn; [6]
  Corn plant response rating: 0
corn; [7]
  Plant response rating, Corn: 2
corn; [8]
  Corn plant response rating: 2
Duck salad; [9]
  Ducksalad plant response rating: 0
Duck salad; [10]
  Ducksalad plant response rating: 0
Duck salad; [11]
  Ducksalad plant response rating: 0
Duck salad; [12]
  Plant response rating, Ducksalad: 0
Duck salad; [13]
  Ducksalad plant response rating: 0
Duck salad; [14]
  Plant response rating, Ducksalad: 0
Duck salad; [15]
  Ducksalad plant response rating: 0
Duck salad; [16]
  Ducksalad plant response rating: 2
rice; [9]
  Rice plant response rating: 0
rice; [10]
  Rice plant response rating: 0
rice; [11]
  Rice plant response rating: 0
rice; [12]
  Plant response rating, Rice: 0
rice; [13]
  Rice plant response rating: 0
rice; [14]
  Plant response rating, Rice: 0
rice; [15]
  Rice plant response rating: 0
rice; [16]
  Rice plant response rating: 0
bamyardgrass; [9]
  Barnyardgrass plant response rating: 0
bamyardgrass; [10]
  Barnyardgrass plant response rating: 0
bamyardgrass; [11]
  Barnyardgrass plant response rating: 0
bamyardgrass; [12]
  Plant response rating, Barnyardgrass: 0
bamyardgrass; [13]
  Barnyardgrass plant response rating: 0
bamyardgrass; [14]
  Plant response rating, Barnyardgrass: 0
bamyardgrass; [15]
  Barnyardgrass plant response rating: 0
bamyardgrass; Rate 2000 g/ha, Pre-emergence (as headed), scale 0 to 10, 0 no effect, 10 complete control
  Barnyardgrass plant response rating: 6
wheat; [1]
  Wheat plant response rating: 2
wheat; [2]
  Wheat plant response rating: 0
wheat; [3]
  Wheat plant response rating (0 to 10 scale): 0
wheat; [4]
  Wheat plant response rating: 2
wheat; [5]
  Wheat plant response rating: 4
wheat; [6]
  Wheat plant response rating: 2
wheat; [7]
  Plant response rating, Wheat: 4
wheat; [8]
  Wheat plant response rating: 4
Purple nutsedge; [1]
  Nutsedge plant response rating: 0
Purple nutsedge; [2]
  Nutsedge plant response rating: 0
Purple nutsedge; [3]
  Nutsedge plant response rating (0 to 10 scale): 0
Purple nutsedge; [4]
  Nutsedge plant response rating: 0
Purple nutsedge; [5]
  Nutsedge plant response rating: 0
Purple nutsedge; [6]
  Nutsedge plant response rating: 0
Purple nutsedge; [7]
  Plant response rating, Nutsedge: 0
Purple nutsedge; [8]
  Nutsedge plant response rating: 4
velvetleaf; [1]
  Velvetleaf plant response rating: 4
velvetleaf; [2]
  Velvetleaf plant response rating: 2
velvetleaf; [3]
  Velvetleaf plant response rating (0 to 10 scale): 3
velvetleaf; [4]
  Velvetleaf plant response rating: 5
velvetleaf; [5]
  Velvetleaf plant response rating: 7
velvetleaf; [6]
  Velvetleaf plant response rating: 2
velvetleaf; [7]
  Plant response rating, Velvetleaf: 5
velvetleaf; [8]
  Velvetleaf plant response rating: 6
Smallflower flatsedge; [9]
  S. Flatsedge plant response rating: 0
Smallflower flatsedge; Pre-emergence, Rate 1000 g/ha, scale 0 to 10 (0 no effect, 10 complete control)
  S. Flatsedge plant response rating: 0
Smallflower flatsedge; [11]
  S. Flatsedge plant response rating: 0
Smallflower flatsedge; [12]
  Plant response rating, S. Flatsedge: 0
Smallflower flatsedge; [13]
  S. Flatsedge plant response rating: 0
Smallflower flatsedge; Rate 500 g/ha, Pre-emergence, flood test species, scale 0 to 10 (0 no effect, 10 complete control)
  S. Flatsedge plant response rating: 0
Smallflower flatsedge; [16]
  S. Flatsedge plant response rating: 0
cocklebur; [1]
  Cocklebur plant response rating: 0
cocklebur; [2]
  Cocklebur plant response rating: 0
cocklebur; [3]
  Cocklebur plant response rating (0 to 10 scale): 0
cocklebur; [4]
  Cocklebur plant response rating: 0
cocklebur; [5]
  Cocklebur plant response rating: 0
cocklebur; [6]
  Cocklebur plant response rating: 0
cocklebur; [7]
  Plant response rating, Cocklebur: 2
cocklebur; [8]
  Cocklebur plant response rating: 2
bedstraw; [1]
  Bedstraw plant response rating: 2
bedstraw; [2]
  Bedstraw plant response rating: 0
bedstraw; [3]
  Bedstraw plant response rating (0 to 10 scale): 0
bedstraw; [4]
  Bedstraw plant response rating: 2
bedstraw; [5]
  Bedstraw plant response rating: 9
bedstraw; [7]
  Plant response rating, Bedstraw: 5
bedstraw; Rate 500 g/ha, Postemergence, scale 0 to 10, 0 no effect, 10 complete control
  Bedstraw plant response rating: 5
Wild oat; [1]
  Wild oats plant response rating: 2
Wild oat; [2]
  Wild oats plant response rating: 3
Wild oat; [3]
  Wild oats plant response rating (0 to 10 scale): 7
Wild oat; [4]
  Wild oats plant response rating: 8
Wild oat; [5]
  Wild oats plant response rating: 9
Wild oat; [6]
  Wild oats plant response rating: 2
Wild oat; [7]
  Plant response rating, Wild oats: 4
Wild oat; [8]
  Wild oats plant response rating: 4
blackgrass; [1]
  Blackgrass plant response rating: 2
blackgrass; [2]
  Blackgrass plant response rating: 4
blackgrass; [3]
  Blackgrass plant response rating (0 to 10 scale): 6
blackgrass; [4]
  Blackgrass plant response rating: 9
blackgrass; [5]
  Blackgrass plant response rating: 10
blackgrass; [6]
  Blackgrass plant response rating: 2
blackgrass; [7]
  Plant response rating, Blackgrass: 7
blackgrass; [8]
  Blackgrass plant response rating: 8
crabgrass; [1]
  Crabgrass plant response rating: 8
crabgrass; [2]
  Crabgrass plant response rating: 7
crabgrass; [3]
  Crabgrass plant response rating (0 to 10 scale): 10
crabgrass; [4]
  Crabgrass plant response rating: 10
crabgrass; [5]
  Crabgrass plant response rating: 10
crabgrass; [6]
  Crabgrass plant response rating: 8
crabgrass; [7]
  Plant response rating, Crabgrass: 9
crabgrass; [8]
  Crabgrass plant response rating: 9
Sugar beet; [1]
  Sugarbeets plant response rating: 0
Sugar beet; [2]
  Sugarbeets plant response rating: 3
Sugar beet; [3]
  Sugarbeets plant response rating (0 to 10 scale): 3
Sugar beet; [4]
  Sugarbeets plant response rating: 4
Sugar beet; [5]
  Sugarbeets plant response rating: 6
Sugar beet; [6]
  Sugarbeets plant response rating: 0
Sugar beet; [7]
  Plant response rating, Sugarbeets: 2
Sugar beet; [8]
  Sugarbeets plant response rating: 2
soybean; [1]
  Soybean plant response rating: 2
soybean; [2]
  Soybean plant response rating: 0
soybean; [3]
  Soybean plant response rating (0 to 10 scale): 0
soybean; [4]
  Soybean plant response rating: 0
soybean; [5]
  Soybean plant response rating: 2
soybean; [6]
  Soybean plant response rating: 1
soybean; [7]
  Plant response rating, Soybean: 4
soybean; [8]
  Soybean plant response rating: 5
Surinam grass; [1]
  B. signalgrass plant response rating: 2
Surinam grass; [2]
  B. signalgrass plant response rating: 0
Surinam grass; [3]
  B. signalgrass plant response rating (0 to 10 scale): 2
Surinam grass; [4]
  B. signalgrass plant response rating: 8
Surinam grass; [5]
  B. signalgrass plant response rating: 9
Surinam grass; [6]
  B. signalgrass plant response rating: 2
Surinam grass; [7]
  Plant response rating, B. signalgrass: 6
Surinam grass; Rate 500 g/ha, Postemergence, scale of 0 to 10 where 0 is no effect and 10 is complete control
  B. signalgrass plant response rating: 7
